# Target: T1, Dopamine beta hydroxylase (Homo sapiens, UniProt P09172)
# T1 construct: 125 μl of plasma; tissue Instituto Português do Sangue Transplantação; host or cells: human plasma from healthy donors
# T1 sequence (P09172 40-617 limits assumed): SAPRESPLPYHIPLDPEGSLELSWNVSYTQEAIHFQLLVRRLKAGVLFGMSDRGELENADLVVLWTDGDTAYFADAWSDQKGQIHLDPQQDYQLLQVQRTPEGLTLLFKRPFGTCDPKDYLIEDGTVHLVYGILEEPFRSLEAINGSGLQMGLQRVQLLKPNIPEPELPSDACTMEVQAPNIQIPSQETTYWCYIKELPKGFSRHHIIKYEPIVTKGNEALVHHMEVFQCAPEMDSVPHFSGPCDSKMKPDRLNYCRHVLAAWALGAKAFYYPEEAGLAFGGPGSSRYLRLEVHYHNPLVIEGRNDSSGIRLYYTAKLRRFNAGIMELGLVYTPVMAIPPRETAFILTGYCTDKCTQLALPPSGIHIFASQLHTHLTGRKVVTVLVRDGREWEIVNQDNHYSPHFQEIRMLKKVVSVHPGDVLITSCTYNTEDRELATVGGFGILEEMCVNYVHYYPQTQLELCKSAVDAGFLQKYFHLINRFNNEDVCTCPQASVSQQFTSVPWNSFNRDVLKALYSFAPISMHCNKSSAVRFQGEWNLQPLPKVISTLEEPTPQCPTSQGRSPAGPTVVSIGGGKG
# Experiment: Dopamine beta hydroxylase activity in human plasma
# Format: biochemical
# Details: for Plasma (0.1 μM), activity in % of control: inhibitor 0.1 μM; for Plasma (1 μM), activity in % of control: inhibitor 1 μM
# Protocol: Furthermore, the ability of a compound to inhibit DβH activity may be assessed in human plasma using the following assay. […]. Dopamine beta hydroxylase activity in human plasma was measured by the method of Nagatsu and Udenfriend (Nagatsu, T. and Udenfriend, S. “Photometric assay of dopamine-μ-hydroxylase activity in human blood.” Clin. Chem. 18(9) 980-983, 1972) with minor modifications. Catalase, N-ethylmaleimide, tyramine, disodium fumarate, pargyline, sodium acetate, ascorbic acid, copper sulfate and octopamine were obtained from Sigma Chemical Co., St. Louis, Mo. 63178. Human plasma samples were obtained from healthy donors (Instituto Português do Sangue Transplantação, Centro Sangue Transplantação, Porto, Portugal). From date of collection, plasma was stored at −80° C. until use. Test compounds were initially prepared in dimethyl sulfoxide at a concentration of 10 mM and diluted in dimethyl sulfoxide to the required concentrations. Test compounds were further diluted in ultrapure water to a concentration 20-fold to that of the final concentration to be tested. Final concentrations of test compounds were 10, 100 and 1000 nM. The various reagents used to make up the incubation buffer were premixed and consisted of the following components: sodium acetate buffer (1 M, pH 5.0, 18 ml), sodium fumarate (0.2 M, 4.5 ml), ascorbic acid (0.2 M, 4.5 ml, freshly prepared), pargyline (20 mM, freshly prepared, 4.5 ml), N-ethylmaleimide (0.2 M, 4.5 ml), catalase (10 000 U/ml, 9 ml), copper sulfate (20 μM, 4.5 ml) and 4.5 ultrapure water. The standard incubation mixture (total volume, 950 μl) contained: 50 μL of compound or vehicle (dimethyl sulfoxide 2%); 700 μL of incubation buffer; 125 μl of plasma (or saline for blank reaction or standard curve); 75 μl of saline. The reaction mixture was placed in water bath, shaking at 37° C. and pre-incubated for 10 minutes. Tyramine (0.5 M) was added and incubation proceeded for 45 minutes. The reaction contents were exposed to air. A sample of enzyme preparation (with 125 μl of plasma) that had been added perchloric acid 2 M at the end of the pre-incubation period was used as blank. A blank for each of the tested compounds was used. For octopamine standard curve, perchloric acid 2 M was replaced by increasing concentrations of octopamine prepared in perchloric acid 2 M (0.5, 1, 2.5, 5, 7.5, 10, 15, 20 μg/ml, final concentration). The incubation was stopped by adding 200 μl of 2 M molar perchloric acid, and the mixture was centrifuged at 9000 g for 5 min. The supernatant fluid (800 μL) was transferred to a column (SPE cartridge ISOLUTE SCX-3, 100 mg) and centrifuged at 150 g for 2 min. The column was washed two more times with 0.5 ml of ultrapure water by centrifuging at 150 g for 2 min. The adsorbed octopamine was eluted twice with 0.3 ml of 4 M ammonium hydroxide by centrifuging at 150 g for 2 min. Octopamine in the eluate was then converted to p-hydroxybenzaldehyde by adding 200 μl of sodium periodate (2%) and incubating for 6 min. Excess periodate was than reduced by adding 200 μl of sodium metabisulfite (10%). Absorbance was measured at […] in a 96-well plate by use of a SpectraMAX plus 384 (Molecular Devices) with software SOFTmax® PRO Software 5.3 spectrophotometer. Absorbance was linear with octopamine concentration from 0.5 to 20 μg/ml. Dopamine beta hydroxylase activity is determined as nmol of octopamine formed/ml of plasma/hour and effect of compounds is presented as % control.
# Results are reported in the table below as activity in % of control at the inhibitor concentration tested.
SMILES,"Plasma (0.1 μM), activity in % of control","Plasma (1 μM), activity in % of control"
"CN(C)CCCNC(=O)Cc1[nH]c(=S)n2c1C[C@H](c1c(F)c(F)cc(F)c1F)C2.Cl [Example 71, (R)—N-(3-(dimethylamino)propyl)-2-(6-(2,3,5,6-tetrafluorophenyl)-3-thioxo-2,5,6,7-tetrahydro-3H-pyrrolo[1,2-c]imidazol-1-yl)acetamide Hydrochloride]",57.0 % of control,11.9 % of control
"O=C(Cc1[nH]c(=S)n2c1C[C@H](c1c(F)c(F)cc(F)c1F)C2)NCCO [Example 72, (R)—N-(2-hydroxyethyl)-2-(6-(2,3,5,6-tetrafluorophenyl)-3-thioxo-2,5,6,7-tetrahydro-3H-pyrrolo[1,2-c]imidazol-1-yl)acetamide]",90.8 % of control,28.9 % of control
"COCCNC(=O)Cc1[nH]c(=S)n2c1C[C@H](c1c(F)c(F)cc(F)c1F)C2 [Example 73, (R)—N-(2-methoxyethyl)-2-(6-(2,3,5,6-tetrafluorophenyl)-3-thioxo-2,5,6,7-tetrahydro-3H-pyrrolo[1,2-c]imidazol-1-yl)acetamide]",75.9 % of control,19.1 % of control
"O=C(Cc1[nH]c(=S)n2c1C[C@@H](c1cc(Br)ccc1F)C2)NC1CCCC1 [Example 74, (S)-2-(6-(5-bromo-2-fluorophenyl)-3-thioxo-2,5,6,7-tetrahydro-3H-pyrrolo[1,2-c]imidazol-1-yl)-N-cyclopentylacetamide]",70.3 % of control,8.1 % of control
"O=C(Cc1[nH]c(=S)n2c1C[C@H](c1cc(Cl)ccc1F)C2)N[C@@H]1CCOC1 [Example 75, 2-((R)-6-(5-chloro-2-fluorophenyl)-3-thioxo-2,5,6,7-tetrahydro-3H-pyrrolo[1,2-c]imidazol-1-yl)-N—((R)-tetrahydrofuran-3-yl)acetamide]",91.0 % of control,56.3 % of control
"O=C(Cc1[nH]c(=S)n2c1C[C@H](c1c(F)cccc1F)C2)NC1CCCC1 [Example 76, (R)—N-cyclopentyl-2-(6-(2,6-difluorophenyl)-3-thioxo-2,5,6,7-tetrahydro-3H-pyrrolo[1,2-c]imidazol-1-yl)acetamide]",65.8 % of control,13.1 % of control
"O=C(Cc1[nH]c(=S)n2c1C[C@H](c1c(F)cccc1F)C2)N[C@@H]1CCOC1 [Example 77, 2-((R)-6-(2,6-difluorophenyl)-3-thioxo-2,5,6,7-tetrahydro-3H-pyrrolo[1,2-c]imidazol-1-yl)-N—((R)-tetrahydrofuran-3-yl)acetamide]",87.2 % of control,38.9 % of control
"O=C(Cc1[nH]c(=S)n2c1C[C@H](c1c(F)c(F)cc(F)c1F)C2)NC1CC1 [Example 78, (R)—N-cyclopropyl-2-(6-(2,3,5,6-tetrafluorophenyl)-3-thioxo-2,5,6,7-tetrahydro-3H-pyrrolo[1,2-c]imidazol-1-yl)acetamide]",77.3 % of control,24.4 % of control
"O=C(Cc1[nH]c(=S)n2c1C[C@H](c1c(F)c(F)cc(F)c1F)C2)NCC1CC1 [Example 79, (R)—N-(cyclopropylmethyl)-2-(6-(2,3,5,6-tetrafluorophenyl)-3-thioxo-2,5,6,7-tetrahydro-3H-pyrrolo[1,2-c]imidazol-1-yl)acetamide]",54.3 % of control,10.3 % of control
"O=C(Cc1[nH]c(=S)n2c1C[C@H](c1c(F)c(F)cc(F)c1F)C2)NC1CCC1 [Example 80, (R)—N-cyclobutyl-2-(6-(2,3,5,6-tetrafluorophenyl)-3-thioxo-2,5,6,7-tetrahydro-3H-pyrrolo[1,2-c]imidazol-1-yl)acetamide]",60.7 % of control,9.8 % of control
